Experimental data published in patent publication US4732972A, “Polypeptides having growth hormone releasing activity” (Hoffmann-La Roche Inc., priority 1985, dated 1988).
Ends that are not written are not given here.

Key:
rat pituitary cells = assay: Growth hormone release in rat pituitary cells in tissue culture (RIA for rat growth hormone); format: cell-based; details: for Growth Hormone Released, Percentage of Control / Growth Hormone Released: 3 hours incubation; for Growth Hormone Released: control 82
Description: The biological activity of (Leu^27)-GRF(1-44)-OH was compared with that of natural GRF(1-44)-NH2 which was isolated from a human pancreatic tumor of an individual suffering from acromegaly (Salk Institute standard hp-GRF-NH2 (NL-A-10)). The assay for biological activity, which is based on the ability to stimulate production of growth hormone in rat pituitary cells in tissue culture, was performed in the following manner.
Pituitaries from 30-40 male Sprague-Dawley rats (175 g) were removed aseptically after decapitation. The anterior lobes were collected, washed 3 times in sterile Hepes buffer (0.025M) (pH 7.35) and dispersed at 37° C. in 20-30-ml Hepes buffer (pH 7.35) containing collagenase (4 mg per ml) and Dispase (Protease grade II, 2 mg per ml). After gentle 100-110-min vortexing and trituration by Pasteur pipette, the dispersed cells were separated by centrifugation (150×g, 4 min) and re-suspended in Hepes buffer containing neuraminidase (8 μg/ml), and 200 μg/ml ethylenedinitrilotetraacetic acid (EDTA) disodium salt pH 7.35, for 10 min. The cells were washed twice with plating medium and plated on multiwell-plates (1.5×10^5 cells per ml) using the following defined medium: F-12/DMEM/(6:3:1) (Gibco: 430-1700/430-1600/320-2591) with 2 g BSA/l., 2.38 g Hepes/l, 50 mg Garamycin/l (Schering Co.). The medium in each well was supplemented either with (Leu^27)-GRF(1-44)-OH or natural GRF(1-44)-NH2 at concentrations ranging from 3.1 to 200 fmol. per ml. of medium. Control wells contained no supplement. Plating was done with this medium added with 2% fetal calf serum to ensure rapid fixation of the cells. On the fourth day the cells were washed twice with the defined medium without fetal calf serum. Finally 900 μl of defined medium was added to each well plus 100 μl of the same medium containing each individual treatment, in triplicate. After 3 hours of incubation the medium was collected and diluted as required to conduct radioimmunoassays (RIAs) for rat growth hormone. RIAs were conducted using Sinha's anti-murine GH immune serum.

growth hormone release = details: compared with amidated 44 amino acid GRF; cited from earlier work

Molecule | Relative potency compared to the Salk Institute standard (rat pituitary cells; computerized analysis of the data of Tables 1 and 2, standard = GRF(1-44)-NH2) | Growth hormone releasing activity compared with GRF(1-44)-NH2 (in words) (rat pituitary cells; data of Tables 1 and 2) | Growth Hormone Released, Percentage of Control (rat pituitary cells; dose 3.1 f mol./ml.) | Growth Hormone Released (rat pituitary cells; dose 3.1 f mol./ml.) | Growth Hormone Released, Percentage of Control (rat pituitary cells; dose 6.3 f mol./ml.) | Growth Hormone Released (rat pituitary cells; dose 6.3 f mol./ml.) | Growth Hormone Released, Percentage of Control (rat pituitary cells; dose 12.5 f mol./ml.) | Growth Hormone Released (rat pituitary cells; dose 12.5 f mol./ml.) | Growth Hormone Released, Percentage of Control (rat pituitary cells; dose 25.0 f mol./ml.) | Growth Hormone Released (rat pituitary cells; dose 25.0 f mol./ml.) | Growth Hormone Released, Percentage of Control (rat pituitary cells; dose 50.0 f mol./ml.) | Growth Hormone Released (rat pituitary cells; dose 50.0 f mol./ml.) | Growth Hormone Released, Percentage of Control (rat pituitary cells; dose 100.0 f mol./ml.) | Growth Hormone Released (rat pituitary cells; dose 100.0 f mol./ml.) | Growth Hormone Released, Percentage of Control (rat pituitary cells; dose 200.0 f mol./ml.) | Growth Hormone Released (rat pituitary cells; dose 200.0 f mol./ml.) | Growth hormone released in vitro relative to the amount of peptide administered (rat pituitary cells; in vitro) | Biological activity after removal of the amide group (in words) (growth hormone release)
CC[C@H](C)[C@H](NC(=O)[C@H](C)NC(=O)[C@H](CC(=O)O)NC(=O)[C@H](C)NC(=O)[C@@H](N)Cc1ccc(O)cc1)C(=O)N[C@@H](Cc1ccccc1)C(=O)N[C@H](C(=O)N[C@@H](CC(N)=O)C(=O)N[C@@H](CO)C(=O)N[C@@H](Cc1ccc(O)cc1)C(=O)N[C@@H](CCCNC(=N)N)C(=O)N[C@@H](CCCCN)C(=O)N[C@H](C(=O)N[C@@H](CC(C)C)C(=O)NCC(=O)N[C@@H](CCC(N)=O)C(=O)N[C@@H](CC(C)C)C(=O)N[C@@H](CO)C(=O)N[C@@H](C)C(=O)N[C@@H](CCCNC(=N)N)C(=O)N[C@@H](CCCCN)C(=O)N[C@@H](CC(C)C)C(=O)N[C@@H](CC(C)C)C(=O)N[C@@H](CCC(N)=O)C(=O)N[C@@H](CC(=O)O)C(=O)N[C@H](C(=O)N[C@@H](CC(C)C)C(=O)N[C@@H](CO)C(=O)N[C@@H](CCCNC(=N)N)C(=O)N[C@@H](CCC(N)=O)C(=O)N[C@@H](CCC(N)=O)C(=O)NCC(=O)N[C@@H](CCC(=O)O)C(=O)N[C@@H](CO)C(=O)N[C@@H](CC(N)=O)C(=O)N[C@@H](CCC(N)=O)C(=O)N[C@@H](CCC(=O)O)C(=O)N[C@@H](CCCNC(=N)N)C(=O)NCC(=O)N[C@@H](C)C(=O)N[C@@H](CCCNC(=N)N)C(=O)N[C@@H](C)C(=O)N[C@@H](CCCNC(=N)N)C(=O)N[C@@H](CC(C)C)C(=O)O)[C@@H](C)CC)C(C)C)[C@@H](C)O [(Leu^27)-GRF(1-44)-OH] | 1.063 | about the same level as GRF(1-44)-NH2 or slightly higher | 162 Percentage of Control | 133 ng/mL | 204 Percentage of Control | 167 ng/mL | 272 Percentage of Control | 223 ng/mL | 329 Percentage of Control | 270 ng/mL | 417 Percentage of Control | 342 ng/mL | 516 Percentage of Control | 423 ng/mL | 649 Percentage of Control | 532 ng/mL | on the order of ten times or more the amount of (Leu^27)-GRF-OH administered | –
free acid form of the 44 amino acid GRF: 44 amino acid GRF with the amide group removed, free acid form (YADAIFTNSYRKVLGQLSARKLLQDIMSRQQGESNQERGARARL-OH; UniProt P01286 32-75, looked up) | – | – | – | – | – | – | – | – | – | – | – | – | – | – | – | – | – | significant loss of biological activity
